Results as given in ChEMBL document CHEMBL1201862, “PubChem BioAssay data set” (2004).
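Values below derive from 48-hour exposures of cells grown in 96-well plates, with endpoints linearly interpolated between the two concentrations bracketing the appropriate inhibition level. The concentration for 50% growth inhibition is given as GI50.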 Activity calls are given as the source filed them. No stated cut-off is given here; in the data, active = GI50 up to about 1.1 µM and inactive = higher.

Tests used:
Assay in all cases: growth of human tumour cells (NCI), 48 h
ACHN = system: ACHN
SK-MEL-28 = system: SK-MEL-28
TK-10 = system: TK-10
MDA-MB-231 = system: MDA-MB-231
SW-620 = system: SW-620
UACC-62 = system: UACC-62
Malme-3M = system: Malme-3M
UACC-257 = system: UACC-257
A549 = system: A549
T47D = system: T47D
SK-MEL-5 = system: SK-MEL-5
U-251 = system: U-251
NCI-H23 = system: NCI-H23
HCT-116 = system: HCT-116
BT-549 = system: BT-549
786-0 = system: 786-0
HCC 2998 = system: HCC 2998
SNB-75 = system: SNB-75
SF-268 = system: SF-268
HL-60 = system: HL-60
SK-OV-3 = system: SK-OV-3
Hs-578T = system: Hs-578T
MDA-MB-435 = system: MDA-MB-435
NCI-H226 = system: NCI-H226
UO-31 = system: UO-31
CAKI-1 = system: CAKI-1
OVCAR-8 = system: OVCAR-8
HCT-15 = system: HCT-15
RPMI-8226 = system: RPMI-8226
SK-MEL-2 = system: SK-MEL-2
NCI-H460 = system: NCI-H460
DU-145 = system: DU-145
OVCAR-5 = system: OVCAR-5
MDA-N = system: MDA-N
SF-295 = system: SF-295
OVCAR-4 = system: OVCAR-4
SR = system: SR
HT-29 = system: HT-29
KM12 = system: KM12
M14 = system: M14
SNB-19 = system: SNB-19
MCF7 = system: MCF7
COLO 205 = system: COLO 205
OVCAR-3 = system: OVCAR-3
LOX IMVI = system: LOX IMVI
MOLT-4 = system: MOLT-4
K562 = system: K562
SF-539 = system: SF-539
CCRF-CEM = system: CCRF-CEM
PC-3 = system: PC-3
IGROV-1 = system: IGROV-1
HOP-92 = system: HOP-92
NCI/ADR-RES = system: NCI/ADR-RES
SN12C = system: SN12C
EKVX = system: EKVX
NCI-H522 = system: NCI-H522
RXF 393 = system: RXF 393
HOP-62 = system: HOP-62

## C/C(=N\NC(=O)Nc1ccccc1Cl)c1ccc(O)cc1
ACHN
  GI50: > 100 µM (inactive)
SK-MEL-28
  GI50: > 100 µM (inactive)
TK-10
  GI50: > 100 µM (inactive)
MDA-MB-231
  GI50: > 100 µM (inactive)
SW-620
  GI50: > 100 µM (inactive)
UACC-62
  GI50: > 100 µM (inactive)
Malme-3M
  GI50: > 100 µM (inactive)
UACC-257
  GI50: > 100 µM (inactive)
A549
  GI50: > 100 µM (inactive)
T47D
  GI50: > 100 µM (inactive)
SK-MEL-5
  GI50: > 100 µM (inactive)
U-251
  GI50: 77.6 µM (inactive)
NCI-H23
  GI50: > 100 µM (inactive)
HCT-116
  GI50: 48.6 µM (inactive)
BT-549
  GI50: > 100 µM (inactive)
786-0
  GI50: > 100 µM (inactive)
HCC 2998
  GI50: > 100 µM (inactive)
SNB-75
  GI50: 34.1 µM (inactive)
SF-268
  GI50: > 100 µM (inactive)
HL-60
  GI50: > 100 µM (inactive)
SK-OV-3
  GI50: > 100 µM (inactive)
Hs-578T
  GI50: > 100 µM (inactive)
MDA-MB-435
  GI50: > 100 µM (inactive)
NCI-H226
  GI50: > 100 µM (inactive)
UO-31
  GI50: > 100 µM (inactive)
CAKI-1
  GI50: > 100 µM (inactive)
OVCAR-8
  GI50: > 100 µM (inactive)
HCT-15
  GI50: 2.28 µM
RPMI-8226
  GI50: > 100 µM (inactive)
SK-MEL-2
  GI50: > 100 µM (inactive)
NCI-H460
  GI50: 20.9 µM (inactive)
DU-145
  GI50: > 100 µM (inactive)
OVCAR-5
  GI50: > 100 µM (inactive)
MDA-N
  GI50: > 100 µM (inactive)
SF-295
  GI50: > 100 µM (inactive)
OVCAR-4
  GI50: > 100 µM (inactive)
SR
  GI50: 4.34 µM (inactive)
HT-29
  GI50: > 100 µM (inactive)
KM12
  GI50: > 100 µM (inactive)
M14
  GI50: > 100 µM (inactive)
SNB-19
  GI50: > 100 µM (inactive)
MCF7
  GI50: > 100 µM (inactive)
COLO 205
  GI50: > 100 µM (inactive)
OVCAR-3
  GI50: > 100 µM (inactive)
LOX IMVI
  GI50: 45.6 µM (inactive)
MOLT-4
  GI50: 7.85 µM (inactive)
K562
  GI50: 8.02 µM (inactive)
SF-539
  GI50: > 100 µM (inactive)
CCRF-CEM
  GI50: > 100 µM (inactive)
PC-3
  GI50: > 100 µM (inactive)
IGROV-1
  GI50: > 100 µM (inactive)
HOP-92
  GI50: > 100 µM (inactive)
NCI/ADR-RES
  GI50: > 100 µM (inactive)
SN12C
  GI50: > 100 µM (inactive)
EKVX
  GI50: > 100 µM (inactive)
NCI-H522
  GI50: > 100 µM (inactive)

## O=C(O)c1cc2ccccc2c(/N=N/c2ccc(S(=O)(=O)O)cc2)c1O
ACHN
  GI50: > 100 µM (inactive)
SK-MEL-28
  GI50: > 100 µM (inactive)
TK-10
  GI50: > 100 µM (inactive)
RXF 393
  GI50: > 100 µM (inactive)
MDA-MB-231
  GI50: > 100 µM (inactive)
HOP-62
  GI50: > 100 µM (inactive)
SW-620
  GI50: > 100 µM (inactive)
UACC-62
  GI50: > 100 µM (inactive)
Malme-3M
  GI50: > 100 µM (inactive)
UACC-257
  GI50: > 100 µM (inactive)
A549
  GI50: > 100 µM (inactive)
T47D
  GI50: > 100 µM (inactive)
SK-MEL-5
  GI50: > 100 µM (inactive)
U-251
  GI50: > 100 µM (inactive)
HCT-116
  GI50: > 100 µM (inactive)
BT-549
  GI50: > 100 µM (inactive)
786-0
  GI50: > 100 µM (inactive)
HCC 2998
  GI50: > 100 µM (inactive)
SNB-75
  GI50: > 100 µM (inactive)
SF-268
  GI50: > 100 µM (inactive)
HL-60
  GI50: > 100 µM (inactive)
SK-OV-3
  GI50: > 100 µM (inactive)
Hs-578T
  GI50: > 100 µM (inactive)
MDA-MB-435
  GI50: > 100 µM (inactive)
NCI-H226
  GI50: > 100 µM (inactive)
UO-31
  GI50: 60.3 µM (inactive)
CAKI-1
  GI50: > 100 µM (inactive)
OVCAR-8
  GI50: > 100 µM (inactive)
HCT-15
  GI50: > 100 µM
RPMI-8226
  GI50: > 100 µM (inactive)
SK-MEL-2
  GI50: > 100 µM (inactive)
NCI-H460
  GI50: > 100 µM (inactive)
DU-145
  GI50: > 100 µM (inactive)
OVCAR-5
  GI50: > 100 µM (inactive)
MDA-N
  GI50: > 100 µM (inactive)
SF-295
  GI50: > 100 µM (inactive)
OVCAR-4
  GI50: > 100 µM (inactive)
SR
  GI50: > 100 µM (inactive)
HT-29
  GI50: > 100 µM (inactive)
KM12
  GI50: > 100 µM (inactive)
M14
  GI50: > 100 µM (inactive)
SNB-19
  GI50: 0.0264 µM (active)
MCF7
  GI50: > 100 µM (inactive)
COLO 205
  GI50: > 100 µM (inactive)
OVCAR-3
  GI50: > 100 µM (inactive)
MOLT-4
  GI50: > 100 µM (inactive)
K562
  GI50: > 100 µM (inactive)
SF-539
  GI50: > 100 µM (inactive)
CCRF-CEM
  GI50: > 100 µM (inactive)
PC-3
  GI50: > 100 µM (inactive)
IGROV-1
  GI50: > 100 µM (inactive)
HOP-92
  GI50: > 100 µM (inactive)
NCI/ADR-RES
  GI50: > 100 µM (inactive)
SN12C
  GI50: > 100 µM (inactive)
EKVX
  GI50: > 100 µM (inactive)
NCI-H522
  GI50: > 100 µM (inactive)
